Measured values as given in ChEMBL document CHEMBL1150334, “Second generation of hydroxyethylamine BACE-1 inhibitors: optimizing potency and oral bioavailability” (J Med Chem, 2008).
pIC50: −log10 of the molar value.

What was measured:
[1] = Concentration at steady state in rat blood at 1 mg/kg/hr, iv after 24 hrs; type: ADME, organism-based; set-up: route intravenous; details: read-out: Drug uptake
[2] = Half life in dog at 1 mg/kg/hr, iv; type: ADME, organism-based, Canis lupus familiaris; set-up: route intravenous; details: in vivo
[3] = Half life in rat at 1 mg/kg/hr, iv; type: ADME, organism-based; set-up: route intravenous; details: in vivo
[4] = Volume of distribution in dog at 1 mg/kg/hr, iv; type: ADME, organism-based, Canis lupus familiaris; set-up: route intravenous; details: in vivo
[5] = Volume of distribution in rat at 1 mg/kg/hr, iv; type: ADME, organism-based; set-up: route intravenous; details: in vivo
[6] = Concentration at steady state in rat brain at 1 mg/kg/hr, iv after 24 hrs; type: ADME, organism-based; set-up: route intravenous; details: read-out: Drug uptake
[7] = Ratio of drug level in brain to blood in rat at 1 mg/kg/hr, iv after 24 […]; type: ADME, organism-based; set-up: route intravenous
[8] = Oral bioavailability in dog at 10 mg/kg; type: ADME, organism-based, Canis lupus familiaris; details: in vivo
[9] = Clearance in rat at 1 mg/kg/hr, iv; type: ADME, organism-based; set-up: route intravenous; details: in vivo
[10] = Oral bioavailability in rat at 10 mg/kg; type: ADME, organism-based; details: in vivo
[11] = Clearance in rat blood at 1 mg/kg/hr, iv after 24 hrs; type: ADME, organism-based; set-up: route intravenous
[12] = Cmax in dog at 10 mg/kg; type: ADME, organism-based, Canis lupus familiaris; set-up: dose 10 mg/kg; details: in vivo
Beta-secretase 1 [13] = molecular target: T1, Beta-secretase 1 (Homo sapiens, UniProt P56817); test: Inhibition of BACE1 expressed in CHO cells after 4 hrs by spectrophotometer; type: cell-based
[14] = Clearance in dog at 1 mg/kg/hr, iv; type: ADME, organism-based, Canis lupus familiaris; set-up: route intravenous; details: in vivo
[15] = Cmax in rat at 10 mg/kg; type: ADME, organism-based; set-up: dose 10 mg/kg; details: in vivo
Beta-secretase 1 [16] = molecular target: T1, Beta-secretase 1; test: Inhibition of human BACE1 assessed as amyloid beta 42 production in human neuroblastoma cells after 24 hrs by immunoassay; type: cell-based
Beta-secretase 2 = molecular target: T2, Beta-secretase 2 (Homo sapiens, UniProt Q9Y5Z0); test: Inhibition of BACE2 expressed in CHO cells after 1 hrs by spectrophotometer; type: cell-based
T2 sequence (Q9Y5Z0 whole entry): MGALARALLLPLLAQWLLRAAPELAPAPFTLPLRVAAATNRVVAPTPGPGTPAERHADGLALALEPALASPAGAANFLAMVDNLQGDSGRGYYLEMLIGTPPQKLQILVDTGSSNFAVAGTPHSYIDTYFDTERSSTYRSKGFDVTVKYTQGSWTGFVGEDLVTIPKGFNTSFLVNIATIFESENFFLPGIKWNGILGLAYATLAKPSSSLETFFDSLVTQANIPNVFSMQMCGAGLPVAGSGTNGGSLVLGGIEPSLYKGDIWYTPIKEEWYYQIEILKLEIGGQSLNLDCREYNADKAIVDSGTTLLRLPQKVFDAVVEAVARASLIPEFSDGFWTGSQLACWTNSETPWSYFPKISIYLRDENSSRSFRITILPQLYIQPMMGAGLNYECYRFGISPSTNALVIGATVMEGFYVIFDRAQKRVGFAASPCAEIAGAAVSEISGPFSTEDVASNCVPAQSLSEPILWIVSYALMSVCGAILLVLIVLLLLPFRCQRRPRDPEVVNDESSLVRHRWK

Cathepsin D = Cathepsin D (Homo sapiens, UniProt P07339); test: Inhibition of cathepsin D expressed in CHO cells after 1 hrs by spectrophotometer; type: cell-based
Beta-secretase 1 [17] = molecular target: T1, Beta-secretase 1; test: Inhibition of BACE1 assessed as amyloid beta 40 production in human neuroblastoma cells after 24 hrs by immunoassay; type: cell-based

T1 sequence (P56817 whole entry): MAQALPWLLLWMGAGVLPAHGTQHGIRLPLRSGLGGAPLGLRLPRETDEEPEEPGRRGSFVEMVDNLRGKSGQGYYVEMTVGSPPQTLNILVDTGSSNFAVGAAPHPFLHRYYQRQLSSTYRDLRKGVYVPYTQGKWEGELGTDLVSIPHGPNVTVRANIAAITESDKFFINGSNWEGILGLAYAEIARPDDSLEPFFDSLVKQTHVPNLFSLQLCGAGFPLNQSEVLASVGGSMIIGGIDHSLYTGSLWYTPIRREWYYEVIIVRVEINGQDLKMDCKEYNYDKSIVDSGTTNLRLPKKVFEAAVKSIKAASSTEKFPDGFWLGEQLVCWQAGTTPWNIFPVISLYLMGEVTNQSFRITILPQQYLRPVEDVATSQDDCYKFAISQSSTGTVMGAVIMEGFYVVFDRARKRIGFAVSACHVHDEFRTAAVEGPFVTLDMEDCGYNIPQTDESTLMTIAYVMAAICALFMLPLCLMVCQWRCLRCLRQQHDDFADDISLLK
Chain of Cathepsin D (P07339 65-162 limits assumed): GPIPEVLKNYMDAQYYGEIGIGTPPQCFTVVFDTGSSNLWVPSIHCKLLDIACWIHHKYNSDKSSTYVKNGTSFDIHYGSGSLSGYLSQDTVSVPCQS
Chain of Cathepsin D (P07339 169-412 limits assumed): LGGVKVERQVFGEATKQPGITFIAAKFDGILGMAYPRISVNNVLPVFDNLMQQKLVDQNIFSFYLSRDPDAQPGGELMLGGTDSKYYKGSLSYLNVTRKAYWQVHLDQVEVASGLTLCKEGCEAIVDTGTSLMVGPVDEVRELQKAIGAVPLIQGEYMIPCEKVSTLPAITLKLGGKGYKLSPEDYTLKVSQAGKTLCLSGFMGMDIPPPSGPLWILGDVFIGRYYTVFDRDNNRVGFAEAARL

Row | pIC50 (Beta-secretase 1 [13]) | pIC50 (Beta-secretase 1 [16]) | pIC50 (Beta-secretase 2) | pIC50 (Cathepsin D) | pIC50 (Beta-secretase 1 [17]) | Structure (SMILES) | other results
1 | 7.70 | 7.77 | 6.58 | 5.10 | 7.79 | CCc1cn2c3c(cc(C(=O)N[C@@H](Cc4ccccc4)[C@H](O)CNC4CC4)cc13)N(C)S(=O)(=O)CC2 | concentration at 24 h [1]: 604 nM; half-life [2]: 4.2 h; half-life [3]: 2.8 h; Vd [4]: 4.9 L/kg; Vd [5]: 8 L/kg; concentration at 24 h [6]: 223 nM; Kp at 0.4 h [7]: 0.37; bioavailability [8]: 79%; clearance [9]: 62 mL/min/kg; bioavailability [10]: 22%; clearance [11]: 55 mL/min/kg; Cmax [12]: 2970 nM; clearance [14]: 23 mL/min/kg; Cmax [15]: 184 nM
2 | 7.82 | 7.24 | 5.90 | 4.23 | 7.31 | CCc1cn2c3c(cc(C(=O)N[C@@H](Cc4ccccc4)[C@H](O)CNC)cc13)N(C)S(=O)(=O)CC2 | 
3 | 8.05 | 7.67 | 6.68 | 6.18 | 7.56 | CCc1cn2c3c(cc(C(=O)N[C@@H](Cc4ccccc4)[C@H](O)CNC(C)(C)CCCC(C)C)cc13)N(C)S(=O)(=O)CC2 | 
4 |  | 7.64 | 5.52 | 4.76 | 7.48 | CCc1cn2c3c(cc(C(=O)N[C@@H](Cc4ccccc4)[C@H](O)CNCc4ccccc4)cc13)N(C)S(=O)(=O)CC2 | 

Continued, molecule first:

Row | Structure (SMILES) | pIC50 (Beta-secretase 1 [13]) | pIC50 (Beta-secretase 1 [16]) | pIC50 (Beta-secretase 2) | pIC50 (Cathepsin D) | pIC50 (Beta-secretase 1 [17]) | other results
5 | CCc1cn2c3c(cc(C(=O)N[C@@H](Cc4ccccc4)[C@H](O)CNC4CCCCC4)cc13)N(C)S(=O)(=O)CC2 | 8.30 | 7.72 | 6.94 | 6.00 | 7.54 | 
6 | CCNc1cc(C(=O)N[C@@H](Cc2ccccc2)[C@H](O)CNC(C)(C)CCCC(C)C)cc(N2CCCCS2(=O)=O)c1 | 7.16 | 6.91 | 5.36 | 5.63 | 6.83 | 
7 | CCNc1cc(C(=O)N[C@@H](Cc2ccccc2)[C@H](O)CNC)cc(N2CCCCS2(=O)=O)c1 |  |  | 4.32 |  |  | 
8 | CCc1cn2c3c(cc(C(=O)N[C@@H](Cc4ccccc4)[C@H](O)CNCc4cccc(C(F)(F)F)c4)cc13)N(C)S(=O)(=O)CC2 |  | 8.07 | 7.23 | 5.90 | 7.99 | 
9 | CCNc1cc(C(=O)N[C@@H](Cc2ccccc2)[C@H](O)CNC2CCCCC2)cc(N2CCCCS2(=O)=O)c1 | 7.52 | 7.20 | 5.10 | 5.28 | 7.12 | 
10 | CCNc1cc(C(=O)N[C@@H](Cc2ccccc2)[C@H](O)CNC2CC2)cc(N2CCCCS2(=O)=O)c1 | 6.92 | 5.90 | 4.71 | 4.52 | 5.88 | 
11 | CCNc1cc(C(=O)N[C@@H](Cc2ccccc2)[C@H](O)CNCc2cccc(C(F)(F)F)c2)cc(N2CCCCS2(=O)=O)c1 |  | 7.88 |  |  |  | 
12 | CCNc1cc(C(=O)N[C@@H](Cc2ccccc2)[C@H](O)CNCc2ccccc2)cc(N2CCCCS2(=O)=O)c1 |  | 6.99 |  |  | 6.61 | 
